Test results as given in patent US7585880B2, “Phenylpropanoic acid derivatives” (Takeda Pharmaceutical Company Limited, priority 2003, dated 2009).

Tests used:
human GPR40 = molecular target: T1, human GPR40 (Homo sapiens, UniProt O14842); assay: Determination of EC50 against human GPR40: intracellular calcium change by FLIPR in CHO cells; format: cell-based; conditions: CHO cell line that stably expressed human GPR40; changes in intracellular calcium concentration measured by FLIPR (Fluo3-AM)
T1 construct: expressed in transfected cells
T1 sequence (O14842 whole entry): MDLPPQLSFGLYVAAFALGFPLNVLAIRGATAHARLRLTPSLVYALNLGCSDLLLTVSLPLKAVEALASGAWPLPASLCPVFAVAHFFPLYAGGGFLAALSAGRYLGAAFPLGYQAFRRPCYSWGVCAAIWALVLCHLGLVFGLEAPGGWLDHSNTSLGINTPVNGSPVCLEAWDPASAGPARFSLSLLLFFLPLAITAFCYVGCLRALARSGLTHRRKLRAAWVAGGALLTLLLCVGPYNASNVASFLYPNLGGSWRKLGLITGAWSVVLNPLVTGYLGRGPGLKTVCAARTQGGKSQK
Protocol: Determination of EC50 of the Compound of the Present Invention Against Human GPR40
For determination of EC50, CHO cell line that stably expressed human GPR40 was used. Unless otherwise indicated, the CHO cell line was cultured using α-MEM medium (Invitrogen) containing 10% fetal calf serum (Invitrogen).
The cells cultured to nearly confluent were rinsed with PBS (Invitrogen) on the previous day of the assay, peeled off with 0.05% Trypsin-EDTA solution (Invitrogen) and recovered by centrifugation. The number of the obtained cells was counted, and the cells were diluted such that 3×10^5 cells were contained per 1 mL of the medium, dispensed to a black welled 96-well plate (coster) by 100 μL per well and cultured overnight in a CO2 incubator. Various test compounds were added to the CHO cells thus prepared, and the changes in the intracellular calcium concentration was measured using FLIPR (Molecular Device). The below-mentioned pre-treatment was applied to measure changes in the intracellular calcium concentration by FLIPR.
An assay buffer for adding a fluorescent dye Fluo3-AM (DOJIN) to the cells, or for washing the cells immediately before FLIPR assay was prepared. To a solution of 1M HEPES (pH 7.4, DOJIN, 20 mL) added to HBSS (Invitrogen, 1000 mL) (hereinafter HBSS/HEPES solution) was added a solution (10 mL) obtained by dissolving probenecid (Sigma, 710 mg) in 1N NaOH (5 mL), and adding and mixing an HBSS/HEPES solution (5 mL), and the resulting solution was used as an assay buffer. Fluo3-AM (50 μg) was dissolved in dimethylsulfoxide (Wako, 21 μL), and an equivalent amount of 20% pluronic acid (Molecular Probes) was added and mixed. The solution was added to the assay buffer (10.6 mL) supplemented with fetal calf serum (105 μL) to give a fluorescent dye solution. On the previous day of assay, the medium of the CHO cells newly inoculated to the black welled 96-well plate was removed, the fluorescent dye solution was immediately dispensed by 100 μL per well and the cells were cultured in a CO2 incubator for 1 hr to allow intake of the fluorescent dye by the cells. The cells after the culture were washed with the above-mentioned assay buffer and set on FLIPR. The test compound was diluted with dimethylsulfoxide in advance, dispensed to polypropylene 96-well plate (sample plate) by 2 μL, and cryopreserved at −20° C. To the thawed sample plate was added an assay buffer containing 0.015% CHAPS (DOJIN) by 198 μL, and simultaneously set on FLIPR together with the cell plate. After the aforementioned pre-treatment, changes in the intracellular calcium concentration upon addition of various test compounds was measured by FLIPR. Based on the results, a dose-response curve of each test compound was formed and EC50 was calculated.

Row | Compound | EC50 (human GPR40) | melting point
1 | CC(C)c1csc(N(CCc2ccccc2)Cc2ccc(COc3ccc(CCC(=O)O)cc3)cc2)n1 [Example 2, 3-{4-[(4-{[(4-isopropyl-1,3-thiazol-2-yl)(2-phenylethyl)amino]methyl}benzyl)oxy]phenyl}propanoic acid] | 48 nM | –
2 | CC(C)c1csc(N(CCc2ccc(F)cc2)Cc2ccc(COc3ccc(CCC(=O)O)c(F)c3)cc2)n1 [Example 9, 3-{2-fluoro-4-[(4-{[[2-(4-fluorophenyl)ethyl](4-isopropyl-1,3-thiazol-2-yl)amino]methyl}benzyl)oxy]-phenyl}propanoic acid] | 38 nM | –
3 | O=C(O)CCc1ccc(OCc2ccc(CN(CCc3ccccn3)c3nc(-c4ccccc4)cs3)cc2)cc1 [Example 12, 3-{4-[(4-([(4-phenyl-1,3-thiazol-2-yl)(2-pyridin-2-ylethyl)amino]methyl}benzyl)oxy]phenyl)propanoic acid] | 19 nM | –
4 | O=C(O)CCc1ccc(OCc2ccc(CN(CCc3ccccc3)c3nc(-c4ccccc4)cs3)cc2)cc1 [Example 32, 3-[4-[[4-[[(2-phenylethyl)(4-phenyl-1,3-thiazol-2-yl)amino]methyl]benzyl]oxy]phenyl]propanoic acid] | – | 114 to 115 °C

More lines, in order of falling EC50 (human GPR40), values ahead:

Row | EC50 (human GPR40) | melting point | Compound
5 | 65 nM | – | O=C(O)CCc1c(F)cc(OCc2ccc(CN(CCc3ccccc3)c3nc(-c4ccccc4)cs3)cc2)cc1F [Example 42, 3-[2,6-difluoro-4-[[4-[[(2-phenylethyl)(4-phenyl-1,3-thiazol-2-yl)amino]methyl]benzyl]oxy]phenyl]propanoic acid]
6 | 55 nM | – | CCCN(Cc1ccc(COc2ccc(CCC(=O)O)cc2)cc1)c1nc(-c2ccccc2)c(C)o1 [Example 40, 3-[4-[[4-[[(5-methyl-4-phenyl-1,3-oxazol-2-yl)(propyl)amino]methyl]benzyl]oxy]phenyl]propanoic acid]
